# Values quoted from earlier work as cited in patent US20080318886A1, “Methods of Increasing Cancer Sensitivity to Chemotherapeutic Agents Using Chimeric ISF35” (priority 2006, published 2008).
# Tested on: CLL
# Conditions: CLL patients, first line treatment
smiles,measurement,value
Nc1nc(F)nc2c1ncn2[C@@H]1O[C@H](CO)[C@@H](O)[C@@H]1O [Fludaribine],overall response rate,~70%
